Measured values reported in ChEMBL document CHEMBL1201862, “PubChem BioAssay data set” (2004).
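In this assay, cells in 96-well plates receive the compound at five concentrations for 48 hours. Endpoints are linearly interpolated between the surrounding concentrations. Here, GI50 denotes the concentration required for 50% inhibition of growth.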 The source made the active and inactive calls. Rule as the data show it: active = GI50 up to about 1.1 µM and inactive = higher.

Assays:
Assay in all cases: DTP human tumour cell line panel, 48 h
SF-295 = system: SF-295
UO-31 = system: UO-31
SF-268 = system: SF-268
HCT-116 = system: HCT-116
UACC-62 = system: UACC-62
ACHN = system: ACHN
SR = system: SR
OVCAR-8 = system: OVCAR-8
SNB-75 = system: SNB-75
U-251 = system: U-251
LXFL 529 = system: LXFL 529
CCRF-CEM = system: CCRF-CEM
SK-MEL-5 = system: SK-MEL-5
NCI-H226 = system: NCI-H226
K562 = system: K562
MOLT-4 = system: MOLT-4
COLO 205 = system: COLO 205
HOP-92 = system: HOP-92
BT-549 = system: BT-549
PC-3 = system: PC-3

Measured: GI50

c1ccc2c(c1)N=C(c1cccc3ccccc13)CC(c1ccc3c(c1)OCO3)S2 (stereo not drawn)
inactive: SF-295 53.6 µM | UO-31 > 100 µM | SF-268 > 100 µM | HCT-116 > 100 µM | UACC-62 > 100 µM | ACHN > 100 µM | SR > 100 µM | OVCAR-8 > 100 µM | SNB-75 > 100 µM | U-251 73.3 µM | LXFL 529 > 100 µM | CCRF-CEM > 100 µM | SK-MEL-5 > 100 µM | NCI-H226 > 100 µM | K562 > 100 µM | MOLT-4 > 100 µM | COLO 205 > 100 µM

CCOC(=O)C(C)(C)Oc1ccc2c(-c3ccccc3)cc(=O)oc2c1
inactive: SF-295 40.9 µM | UO-31 23 µM | SF-268 45.8 µM | HCT-116 35.6 µM | UACC-62 18.3 µM | ACHN 40.2 µM | SR 24.9 µM | OVCAR-8 37.1 µM | SNB-75 12.9 µM | U-251 36.3 µM | LXFL 529 25.3 µM | CCRF-CEM 21.7 µM | SK-MEL-5 13.9 µM | NCI-H226 33.3 µM | K562 27.6 µM | MOLT-4 20.2 µM | COLO 205 21.6 µM

N#Cc1cc([N+](=O)[O-])ccc1NC(=O)C(=O)Nn1c(S)nc2ccccc2c1=O
inactive: SF-295 > 100 µM | UO-31 > 100 µM | SF-268 > 100 µM | HOP-92 > 100 µM | HCT-116 > 100 µM | SR > 100 µM | OVCAR-8 > 100 µM | SNB-75 > 100 µM | U-251 > 100 µM | LXFL 529 > 100 µM | CCRF-CEM > 100 µM | SK-MEL-5 > 100 µM | NCI-H226 > 100 µM | K562 > 100 µM | COLO 205 > 100 µM

O=[N+]([O-])c1ccc(-c2ccc(C3=Nn4c(CNc5ccccc5Cl)nnc4SC3)o2)cc1
inactive: SF-295 > 100 µM | UO-31 > 100 µM | SF-268 > 100 µM | HOP-92 > 100 µM | HCT-116 > 100 µM | UACC-62 > 100 µM | ACHN 32.6 µM | SR > 100 µM | OVCAR-8 > 100 µM | SNB-75 > 100 µM | U-251 > 100 µM | LXFL 529 82.4 µM | NCI-H226 > 100 µM | K562 58.3 µM | MOLT-4 > 100 µM | COLO 205 > 100 µM

CC(=O)N1CCC2(C=Nc3ccccc32)CC1
inactive: SF-295 > 100 µM | HOP-92 > 100 µM | HCT-116 > 100 µM | UACC-62 > 100 µM | ACHN > 100 µM | OVCAR-8 > 100 µM | SNB-75 > 100 µM | U-251 > 100 µM | LXFL 529 > 100 µM | CCRF-CEM > 100 µM | SK-MEL-5 > 100 µM | K562 > 100 µM | MOLT-4 > 100 µM | COLO 205 > 100 µM

COc1ccc(NC(=O)C2C(=O)N(c3ccc(OC)cc3)C(=O)/C2=N/O)cc1 (stereo not drawn)
inactive: SF-295 26.4 µM | UO-31 22.2 µM | SF-268 24.8 µM | HOP-92 16.1 µM | HCT-116 21.6 µM | UACC-62 21.8 µM | ACHN 21.8 µM | SR > 100 µM | OVCAR-8 18 µM | SNB-75 32.2 µM | U-251 22.3 µM | LXFL 529 25.2 µM | CCRF-CEM > 100 µM | NCI-H226 23.8 µM | K562 > 100 µM | MOLT-4 > 100 µM | COLO 205 > 100 µM

O=C(Cc1ccccc1)NN1C(=O)C(Cl)C1c1cccc(O)c1 (stereo not drawn)
inactive: SF-295 16.7 µM | UO-31 15.9 µM | SF-268 21.1 µM | HCT-116 13.6 µM | UACC-62 > 10 µM | ACHN 16.4 µM | SR 3.58 µM | OVCAR-8 14 µM | SNB-75 26.5 µM | U-251 11.9 µM | LXFL 529 10.6 µM | CCRF-CEM 3.06 µM | NCI-H226 21.7 µM | K562 6.27 µM | MOLT-4 7.69 µM | COLO 205 18.4 µM

COC(=O)C1Cc2c([nH]c3ccccc23)[C@H](CC(C)C)N1 (stereo partly drawn)
inactive: SF-295 > 100 µM | UO-31 > 100 µM | SF-268 > 100 µM | HOP-92 > 100 µM | HCT-116 > 100 µM | UACC-62 > 100 µM | ACHN > 100 µM | SR > 100 µM | OVCAR-8 > 100 µM | SNB-75 97.5 µM | U-251 > 100 µM | LXFL 529 > 100 µM | CCRF-CEM > 100 µM | NCI-H226 > 100 µM | K562 > 100 µM | MOLT-4 > 100 µM | COLO 205 > 100 µM

Nc1nc(O)c2c(ncn2CC(O)CO)n1 (stereo not drawn)
inactive: SF-295 > 100 µM | UO-31 > 100 µM | SF-268 > 100 µM | HOP-92 > 100 µM | HCT-116 > 100 µM | UACC-62 > 100 µM | ACHN > 100 µM | SR > 100 µM | OVCAR-8 > 100 µM | SNB-75 > 100 µM | U-251 > 100 µM | LXFL 529 > 100 µM | CCRF-CEM > 100 µM | SK-MEL-5 > 100 µM | NCI-H226 > 100 µM | K562 > 100 µM | COLO 205 > 100 µM

COc1cc(N(CCC#N)CCC#N)ccc1C(=N/NC(=O)c1cc(Br)ccc1O)/N=N/c1ccc(C)cc1
inactive: BT-549 18 µM | SF-295 31 µM | UO-31 18.5 µM | SF-268 15.4 µM | HOP-92 20.8 µM | PC-3 20.6 µM | HCT-116 16.1 µM | UACC-62 18.5 µM | ACHN 27 µM | SR 24.3 µM | OVCAR-8 22.8 µM | SNB-75 22.6 µM | U-251 37.4 µM | CCRF-CEM 4.5 µM | SK-MEL-5 17.1 µM | NCI-H226 32.4 µM | K562 37.2 µM | MOLT-4 14 µM | COLO 205 15.7 µM

Cn1c(=O)ccc2cc(C(=O)c3ccccc3)ccc21
inactive: SF-295 79.3 µM | SF-268 76.6 µM | HOP-92 34.8 µM | HCT-116 73.5 µM | UACC-62 14.6 µM | ACHN 36.8 µM | OVCAR-8 58.6 µM | SNB-75 12.3 µM | U-251 84.9 µM | LXFL 529 45.8 µM | CCRF-CEM 69.7 µM | SK-MEL-5 22.8 µM | NCI-H226 21.2 µM | K562 44.1 µM | MOLT-4 69.7 µM | COLO 205 > 100 µM

C=CC(Br)(CBr)CCC(Br)C(C)(C)Br (stereo not drawn)
inactive: SF-295 4.42 µM | UO-31 15.2 µM | SF-268 17.1 µM | HOP-92 15.7 µM | HCT-116 14.5 µM | UACC-62 12 µM | ACHN 12.7 µM | SR 3.81 µM | OVCAR-8 15.7 µM | SNB-75 10.3 µM | U-251 14.2 µM | LXFL 529 14.5 µM | SK-MEL-5 14.5 µM | NCI-H226 18.1 µM | K562 17.3 µM | MOLT-4 9.51 µM | COLO 205 15 µM
